Data from patent US12691084B2, “Pharmaceutical composition for preventing or treating bone diseases” (INDUSTRY FOUNDATION OF CHONNAM NATIONAL UNIVERSITY, priority 2019, dated 2026).

Tests used:
Plasma stability = assay type: in vitro ADME
Procedure: (§1) In order to analyze the drug metabolism of PMSA compound, ADME evaluation was requested to the Daegu-Gyeongbuk Advanced Medical industry Promotion Foundation (DGMIF). Metabolic stability of drugs using liver microsomes (microsomal stability), drug metabolism inhibitory ability by five CYP450 enzymes, plasma metabolism (plasma stability), plasma protein binding, and intestinal permeability of drugs (PAMPA, parallel artificial membrane permeability assay) were analyzed. […] Further, it was confirmed that the permeability resistance was excellent (see Table 3 below). On the other hand, for one of PMSA derivatives, that is, 2-(N-(3,5-dimethylphenyl)methylsulfinamido)-N-(2 (phenylthio)phenyl)propanamide (#25-D5), intestinal permeability of the drug (PAMPA) was not measured.

CYP3A4 = CYP3A4 (Homo sapiens, UniProt P08684); assay: CYP450 drug metabolism inhibition, 3A4; assay type: in vitro ADME; settings: criterion remaining activity >50%
CYP3A4, sequence (P08684 whole entry): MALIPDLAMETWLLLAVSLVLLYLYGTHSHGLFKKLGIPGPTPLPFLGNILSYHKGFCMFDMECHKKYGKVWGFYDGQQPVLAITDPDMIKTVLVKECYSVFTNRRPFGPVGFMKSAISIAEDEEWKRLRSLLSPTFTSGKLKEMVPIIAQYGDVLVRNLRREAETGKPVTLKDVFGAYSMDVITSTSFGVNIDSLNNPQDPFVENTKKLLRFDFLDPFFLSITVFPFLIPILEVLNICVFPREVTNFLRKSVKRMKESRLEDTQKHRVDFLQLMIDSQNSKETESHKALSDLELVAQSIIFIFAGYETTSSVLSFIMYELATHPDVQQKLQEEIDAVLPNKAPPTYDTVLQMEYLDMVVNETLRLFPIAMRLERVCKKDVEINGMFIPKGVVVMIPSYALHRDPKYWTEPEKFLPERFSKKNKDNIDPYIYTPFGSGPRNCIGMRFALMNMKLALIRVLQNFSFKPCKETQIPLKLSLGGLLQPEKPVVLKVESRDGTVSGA
Procedure: as §1

Microsomal stability (M) = assay type: in vitro ADME, mouse; settings: M of H/M; criterion >60%
Procedure: as §1

[1] = ADME evaluation (DGMIF), overall conclusion on toxicity; assay type: in vitro ADME; settings: conclusion from ADME evaluation
Procedure: as §1

CYP2D6 = CYP2D6 (Homo sapiens, UniProt P10635); assay: CYP450 drug metabolism inhibition, 2D6; assay type: in vitro ADME; settings: criterion remaining activity >50%
CYP2D6, sequence (P10635 whole entry): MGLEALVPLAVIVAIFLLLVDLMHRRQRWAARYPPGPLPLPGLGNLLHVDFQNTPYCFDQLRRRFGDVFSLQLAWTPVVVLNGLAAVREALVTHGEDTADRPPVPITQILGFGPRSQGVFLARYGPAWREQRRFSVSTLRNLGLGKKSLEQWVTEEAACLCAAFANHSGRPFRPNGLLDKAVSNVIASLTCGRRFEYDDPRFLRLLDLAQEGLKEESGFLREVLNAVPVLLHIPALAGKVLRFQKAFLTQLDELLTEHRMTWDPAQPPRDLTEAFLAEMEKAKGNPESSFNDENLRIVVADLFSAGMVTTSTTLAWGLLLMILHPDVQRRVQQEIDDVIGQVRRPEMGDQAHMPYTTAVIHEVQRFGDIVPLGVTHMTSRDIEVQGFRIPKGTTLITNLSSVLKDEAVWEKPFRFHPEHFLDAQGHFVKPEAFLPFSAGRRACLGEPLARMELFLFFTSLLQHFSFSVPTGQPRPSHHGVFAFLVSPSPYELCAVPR
Procedure: as §1

Microsomal stability (H) = assay type: in vitro ADME, human; settings: H of H/M; criterion >60%
Procedure: as §1

plasma proteins = assay: Plasma protein binding (PPB); assay type: in vitro ADME, Human; settings: for binding with plasma proteins: conclusion from ADME evaluation
Procedure: as §1

CYP1A2 = target: T1, CYP1A2 (Homo sapiens, UniProt P05177); assay: CYP450 drug metabolism inhibition, 1A2; assay type: in vitro ADME; settings: criterion remaining activity >50%
T1 sequence (P05177 1-516): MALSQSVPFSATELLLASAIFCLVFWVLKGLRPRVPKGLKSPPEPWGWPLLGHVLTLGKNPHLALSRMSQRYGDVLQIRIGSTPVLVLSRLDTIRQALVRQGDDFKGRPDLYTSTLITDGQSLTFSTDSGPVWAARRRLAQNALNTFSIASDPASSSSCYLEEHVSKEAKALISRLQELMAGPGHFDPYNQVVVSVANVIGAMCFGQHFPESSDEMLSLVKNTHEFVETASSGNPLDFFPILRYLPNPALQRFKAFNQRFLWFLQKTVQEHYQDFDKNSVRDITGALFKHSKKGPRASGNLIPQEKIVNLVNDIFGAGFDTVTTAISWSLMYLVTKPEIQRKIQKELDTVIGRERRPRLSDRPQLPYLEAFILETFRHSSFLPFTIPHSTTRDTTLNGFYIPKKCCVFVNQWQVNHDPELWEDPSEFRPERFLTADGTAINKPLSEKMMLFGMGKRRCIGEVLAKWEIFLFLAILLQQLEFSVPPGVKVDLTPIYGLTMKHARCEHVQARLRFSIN
Procedure: as §1

CYP2C9 = CYP2C9 (Homo sapiens, UniProt P11712); assay: CYP450 drug metabolism inhibition, 2C9; assay type: in vitro ADME; settings: criterion remaining activity >50%
CYP2C9, sequence (P11712 whole entry): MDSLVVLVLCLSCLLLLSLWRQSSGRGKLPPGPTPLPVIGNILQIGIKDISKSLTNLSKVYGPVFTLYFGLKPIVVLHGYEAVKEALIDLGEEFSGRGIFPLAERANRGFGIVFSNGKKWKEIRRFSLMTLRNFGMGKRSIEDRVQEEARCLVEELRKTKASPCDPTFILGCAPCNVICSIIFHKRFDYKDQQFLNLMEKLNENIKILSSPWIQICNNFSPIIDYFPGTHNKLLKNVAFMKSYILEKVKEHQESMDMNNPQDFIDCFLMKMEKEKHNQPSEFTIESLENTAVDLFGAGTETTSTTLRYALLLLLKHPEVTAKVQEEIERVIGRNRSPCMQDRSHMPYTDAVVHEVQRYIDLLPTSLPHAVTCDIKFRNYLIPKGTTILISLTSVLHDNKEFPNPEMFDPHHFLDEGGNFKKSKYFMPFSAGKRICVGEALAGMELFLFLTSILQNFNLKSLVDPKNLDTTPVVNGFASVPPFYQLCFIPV
Procedure: as §1

[2] = PAMPA, parallel artificial membrane permeability assay; assay type: in vitro ADME; settings: for Papp: PAMPA, criterion >40, read-out: PAMPA (>40) Pe; for permeability resistance: conclusion from ADME evaluation
Procedure: as §1

mouse bone marrow cells = assay: Bone resorption assay on calcium phosphate coated plate; assay type: cell-based; settings: 6 days; for bone resorption ability: compared to Ctrl
Procedure: Bone resorption ability was confirmed using a bone resorption assay kit (Cosmo Rio, CSR-BRA). 2.5×10^4 mouse bone marrow cells per well were put into a 48-well plate coated with calcium phosphate, followed by treating the cells with PMSA to perform differentiation for 6 days. After 6 days, a fluorescence absorbance was measured with the culture medium to confirm the bone absorption ability. Further, decomposition degree of calcium phosphate was photographed a microscope to confirm the bone resorption ability. […] In FIG. 4, BMMs refer to monocytes that are not differentiated osteoclasts.
Further, the bone resorption ability was confirmed using a bone resorption assay kit (Cosmo Bio, CSR-BRA). 2.5×10^4 mouse bone marrow cells per well were put into a 48-well plate coated with calcium phosphate, and were differentiated for 6 days while being treated with PSTP-3,5-Me. After 6 days, the fluorescence absorbance was measured with the culture medium to confirm the bone absorption ability.

CYP2C19 = CYP2C19 (Homo sapiens, UniProt P33261); assay: CYP450 drug metabolism inhibition, 2C19; assay type: in vitro ADME; settings: criterion remaining activity >50%
CYP2C19, sequence (P33261 whole entry): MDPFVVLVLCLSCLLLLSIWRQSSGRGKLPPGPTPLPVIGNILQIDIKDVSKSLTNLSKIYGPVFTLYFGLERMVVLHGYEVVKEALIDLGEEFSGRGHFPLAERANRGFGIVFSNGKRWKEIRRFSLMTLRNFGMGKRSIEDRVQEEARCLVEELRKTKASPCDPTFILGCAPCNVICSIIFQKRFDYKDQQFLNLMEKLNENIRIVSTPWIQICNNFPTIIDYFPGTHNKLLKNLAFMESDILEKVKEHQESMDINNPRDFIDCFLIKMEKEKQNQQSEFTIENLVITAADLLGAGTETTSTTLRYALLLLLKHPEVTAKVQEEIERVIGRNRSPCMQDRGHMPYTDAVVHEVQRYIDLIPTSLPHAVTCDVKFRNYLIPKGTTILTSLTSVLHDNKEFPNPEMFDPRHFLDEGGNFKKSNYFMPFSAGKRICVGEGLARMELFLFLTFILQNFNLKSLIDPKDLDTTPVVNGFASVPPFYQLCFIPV
Procedure: as §1

[3] = tested on: monocytes isolated from mouse bone marrow treated with RANKL; assay: Osteoclast differentiation inhibition, TRAP staining and assay; assay type: cell-based; settings: 10 μM; RANKL; TRAP staining, Image J
Procedure: Macrophages were isolated from bone marrow of 8-week old C57BL/6J mice, and seeded on a 96-well plate in an amount of 1×10^4 cells per well, followed by treating the cells with osteoclast differentiation factors M-CSF and RANKL at 30 ng/ml and 50 ng/ml, respectively. At the same time, the compounds were used for treatment, followed by culturing the cells for 3 to 4 days. Thereafter, differentiation influence was evaluated through TRAP staining and cell counting. Specific experimental procedures and results are as follows.
The bone marrow of a 10-week-old female mouse was isolated from the hip bone, femur and tibia, and incubated in α-MEM medium (Gibco, 12561-056, 10% fetal bovine serum, 1% penicillin/streptomycin) containing macrophage colony stimulating factor (M-CSF, PeproTech, 315-02, 30 ng/ml) for […] so as to isolate only monocytes. The isolated monocytes were treated with receptor activator of nuclear factor kappa B ligand (RANKL, PeproTech, 315-11, 50 ng/ml) to induce osteoclast differentiation. When a morphology of fused multinuclear cells began to appear from day 3 after treatment with RANKL, the cells were differentiated into giant multinuclear cells for 4 to 6 days (see FIG. 1), and dead by cell apoptosis after 6 days.
During RANKL treatment, each PMSA compound was also used for treatment, followed by culturing the cells for 3 or 5 days to confirm the effects of inhibiting osteoclast differentiation.
1×10^4 monocytes isolated from mouse bone marrow were put into a 96-well plate and treated with RANKL and PMSA together to confirm the effect of each PMSA on osteoclast differentiation ability. Each PMSA was used for treatment by concentration. The activity of tartrate-resistant acid phosphatase (TRAP), which has increased expression during osteoclast differentiation, was confirmed using a TRAP activity assay kit (Cosmo Bio, PMC-AK04F-COS) (see FIG. 2).
Further, after staining, the multinuclear cells formed during osteoclast differentiation were observed under a microscope, and each well was photographed and a differentiation area ratio per total area was determined using Image J software. […] Specifically, at 10 μM concentration, cells were differentiated into osteoclasts by 30% when using #25 (PMSA-3-Ac), similarly, 74% using #25-C (PMSA-Ph), 63% using #25-N (PMSA-PhN), 41% using #25-PhO (PMSA-O), and only 1% using #25-D12 (PMSA-2-OMe-5-Cl), respectively. […]

Plasma S Human 30 min (% Remaining) (Plasma stability)	Plasma S Human 120 min (% Remaining) (Plasma stability)	CYP 3A4 remaining activity (CYP3A4)	Microsomal stability (>60%) M (Microsomal stability (M))	CYP 2D6 remaining activity (CYP2D6)	Microsomal stability (>60%) H (Microsomal stability (H))	PPB Human (%, bound) (plasma proteins)	binding with plasma proteins (plasma proteins)	CYP 1A2 remaining activity (CYP1A2)	CYP 2C9 remaining activity (CYP2C9)	Papp [2]	permeability resistance [2]	CYP 2C19 remaining activity (CYP2C19)	SMILES	toxicity [1]	bone resorption ability (mouse bone marrow cells)	cells differentiated into osteoclasts (differentiation area ratio per total area) [3]	decrease in bone resorption ability (mouse bone marrow cells; compared to differentiated osteoclasts (Ctrl) not treated, fluorescence absorbance)
100/100 % Remaining	100/100 % Remaining	43.1%	4.0%	12.6%	3.3%	97.9 %, bound	good	81.6%	47%	47.2 ×10⁻⁶ cm/s	excellent	9%	CC(=O)c1cccc(N(CC(=O)Nc2ccccc2Nc2ccccc2)S(C)(=O)=O)c1 [#25-N, 2-(N-(3-acetylphenyl)methylsulfonamido)-N-(2-(phenylamino)phenyl)acetamide]	low toxicity	slightly decreased	63%	
94.3 % Remaining	96.4 % Remaining	70.1%	3.1%	53.1%	12.5%	98.4 %, bound	good	100%	49.7%	66.2 ×10⁻⁶ cm/s	excellent	10.4%	CC(=O)c1cccc(N(CC(=O)Nc2ccccc2Oc2ccccc2)S(C)(=O)=O)c1 [#25-O, 2-(N-(3-acetylphenyl)methylsulfonamido)-N-(2-phenoxyphenyl)acetamide]	low toxicity	slightly decreased	41%	
100/100 % Remaining	100/100 % Remaining	72%	3.7%	18.3%	50.6%	97.9 %, bound	good	96.8%	67.2%	76.6 ×10⁻⁶ cm/s	excellent	6.9%	CC(=O)c1cccc(N(CC(=O)Nc2ccccc2-c2ccccc2)S(C)(=O)=O)c1 [#25-C, N-([1,1′-biphenyl]-2-yl)-2-(N-(3-acetylphenyl)methylsulfonamido)acetamide]	low toxicity		74%	13.4%
